Source: paper PMC8746970, “Determination of the Peptide AWRK6 in Rat Plasma by Liquid Chromatography-Tandem Mass Spectrometry (LC-MS/MS) and Its Application to Pharmacokinetics” (Molecules, 2021)
No end group written: not given here.

Test: Stability of AWRK6 QC samples in rat plasma under storage conditions
Format: in vitro ADME
Details: for measured concentration of QC sample after storage / relative error of QC sample after storage: rat plasma QC, LC-MS/MS, n = 3; for measured concentration of QC sample after storage: mean ± SD
Method: The AWRK6 and IS were dissolved in water at 1.0 mg/mL for stock solution. The AWRK6 calibration standards at 0.05, 0.1, 0.5, 1, 2, 5, and 10 μg/mL were prepared by mixing 50 μL of working solution and 100 μL of blank plasma individually. QC samples of AWRK6 at 0.1, 0.5, and 5 μg/mL were prepared by the same method. The thawed plasma samples (100 μL) were mixed with 50 μL water (or QC), 50 μL IS (1 μg/mL), and 20 μL FA-water (25:75, v/v). A combination of plasma precipitation and liquid–liquid extraction was applied for the extraction of AWRK6 in samples. After adding 200 μL methanol and 100 μL dichloromethane, the mixtures were vortexed for 30 s and centrifuged at 14,000 g for 10 min. The supernatant was filtered by 0.22 μm membrane for LC-MS/MS analysis.
The method was validated for specificity, linearity, LOD, LOQ, LLOQ, precision, accuracy, recovery, matrix effect, and stability according to U.S. FDA guidelines. Specificity was determined using blank plasma samples from 6 rats. Linearity was accessed using calibration standards in triplicate within 3 consecutive days. LOD and LOQ were estimated as concentrations of AWRK6 which generated S/N value of 3 or 10, and they were verified by continuous evaluating the S/N value of 3 LOD samples or 6 LOQ samples. LLOQ was determined using 6 calibration standard samples at 0.05 μg/mL. Precision and accuracy were accessed using QC samples and repeated 6 times within 3 consecutive days. Recovery was calculated by comparing the respective peak areas of the QC samples with the blank plasma samples spiked after extraction (repeated 6 times). Matrix effect was evaluated by comparing the respective peak areas of the QC samples with standard solutions (AWRK6 and IS in water, respectively) at the same concentrations (repeated 6 times). Stability was analyzed using QC samples under different storage conditions including room temperature for 6 h, 3 freeze–thaw cycles, 4 °C for 12 h, and−20 °C for 7 days.

[1] = nominal 0.100 μg/mL, room temperature for 6 h
[2] = nominal 0.100 μg/mL, storage at 4 °C for 12 h
[3] = nominal 0.100 μg/mL, storage at −20 °C for 7 days
[4] = nominal 0.100 μg/mL, three freeze–thaw cycles
[5] = nominal 0.500 μg/mL, room temperature for 6 h
[6] = nominal 0.500 μg/mL, storage at 4 °C for 12 h
[7] = nominal 0.500 μg/mL, storage at −20 °C for 7 days
[8] = nominal 0.500 μg/mL, three freeze–thaw cycles
[9] = nominal 5.000 μg/mL, storage at 4 °C for 12 h
[10] = nominal 5.000 μg/mL, storage at −20 °C for 7 days
[11] = nominal 5.000 μg/mL, three freeze–thaw cycles

relative error of QC samples (stability acceptable) (rat plasma QC 0.1, 0.5, 5 μg/mL, room temperature for 6 h, 3 freeze–thaw cycles, and 4 °C for 12 h): < 12%
relative error of QC samples (significant degradation) (rat plasma QC 0.1, 0.5, 5 μg/mL, storage at −20 °C for 7 days): −16.94 to −34.74%
measured concentration of QC sample after storage [1]: 0.089 ± 0.007 µg/mL
relative error of QC sample after storage [1]: −6.315%
measured concentration of QC sample after storage [2]: 0.084 ± 0.013 µg/mL
relative error of QC sample after storage [2]: −11.579%
measured concentration of QC sample after storage [3]: 0.062 ± 0.018 µg/mL
relative error of QC sample after storage [3]: −34.737%
measured concentration of QC sample after storage [4]: 0.091 ± 0.008 µg/mL
relative error of QC sample after storage [4]: −4.210%
measured concentration of QC sample after storage [5]: 0.462 ± 0.021 µg/mL
relative error of QC sample after storage [5]: −4.742%
measured concentration of QC sample after storage [6]: 0.442 ± 0.015 µg/mL
relative error of QC sample after storage [6]: −8.866%
measured concentration of QC sample after storage [7]: 0.387 ± 0.047 µg/mL
relative error of QC sample after storage [7]: −20.206%
measured concentration of QC sample after storage [8]: 0.477 ± 0.016 µg/mL
relative error of QC sample after storage [8]: −1.649%
measured concentration of QC sample after storage [9]: 4.881 ± 0.301 µg/mL
relative error of QC sample after storage [9]: −1.040%
measured concentration of QC sample after storage [10]: 4.153 ± 0.442 µg/mL
relative error of QC sample after storage [10]: −16.940%
measured concentration of QC sample after storage [11]: 4.912 ± 0.049 µg/mL
relative error of QC sample after storage [11]: −0.409%
Substance: SWVGKHGKKFGLKKHKKH-NH2 (C-terminus assumed) [AWRK6]
